Measured values published in US20230045421A1 (priority 2018, published 2023).

System: HBV rcDNA
Assay: HepDE19 assay with bDNA quantitation of HBV rcDNA
Assay type: cell-based, hepatitis B virus
Settings: HepDE19 assay, inhibition of formation of relaxed circular DNA (rcDNA), bDNA quantitation; read-out: DE-19bDNA EC50
Outline: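 HepDE19 cells (HepG2-derived, Tet-regulated HBV replication) were deprived of tetracycline and then exposed to compounds for 7 days at 37 °C in 0.5% DMSO, 8-point titration from 25 μM. rcDNA was quantified by bDNA and EC50/EC90 came from 4-parameter fits. CC50 was measured by CellTiter-Glo ATP content on replicate plates after 4 days.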

Compound | EC50
CC(c1c[nH]c(=O)c2c(F)c(F)ccc12)N(C)C(=O)Nc1cc(F)c(F)c(F)c1 (single isomer, unassigned) [Compound 442, 1-(1-(7,8-Difluoro-1-oxo-1,2-dihydroisoquinolin-4-yl)ethyl)-1-methyl-3-(3,4,5-trifluorophenyl)urea] | 4.7 µM
CC(c1c[nH]c(=O)c2c(F)c(F)ccc12)N(C)C(=O)Nc1cc(F)c(F)c(F)c1 (single isomer, unassigned) [Compound 443, 1-(1-(7,8-Difluoro-1-oxo-1,2-dihydroisoquinolin-4-yl)ethyl)-1-methyl-3-(3,4,5-trifluorophenyl)urea] | 0.04 µM
CC(C)CN(C(=O)Nc1ccc(F)c(Cl)c1)C(C)c1c[nH]c(=O)c2c(F)cc(F)cc12 (single isomer, unassigned) [Compound 446, 3-(3-Chloro-4-fluorophenyl)-1-(1-(6,8-difluoro-1-oxo-1,2-dihydroisoquinolin-4-yl)ethyl)-1-isobutylurea] | 0.59 µM
CC(c1c[nH]c(=O)c2c(F)c(F)ccc12)N(C)C(=O)Nc1cc(Cl)c(F)c(Cl)c1 (single isomer, unassigned) [Compound 451, 3-(3,5-Dichloro-4-fluorophenyl)-1-(1-(7,8-difluoro-1-oxo-1,2-dihydroisoquinolin-4-yl)ethyl)-1-methylurea] | 3.2 µM
CC(c1c[nH]c(=O)c2c(F)c(F)ccc12)N(C)C(=O)Nc1cc(Cl)c(F)c(Cl)c1 (single isomer, unassigned) [Compound 452, 3-(3,5-Dichloro-4-fluorophenyl)-1-(1-(7,8-difluoro-1-oxo-1,2-dihydroisoquinolin-4-yl)ethyl)-1-methylurea] | 0.047 µM
CC(c1c[nH]c(=O)c2c(F)c(F)ccc12)N(C)C(=O)Nc1cccc(F)c1F (single isomer, unassigned) [Compound 458, 1-(1-(7,8-Difluoro-1-oxo-1,2-dihydroisoquinolin-4-yl)ethyl)-3-(2,3-difluorophenyl)-1-methylurea] | 14 µM
CC(c1c[nH]c(=O)c2c(F)c(F)ccc12)N(C)C(=O)Nc1cccc(F)c1F (single isomer, unassigned) [Compound 459, 1-(1-(7,8-Difluoro-1-oxo-1,2-dihydroisoquinolin-4-yl)ethyl)-3-(2,3-difluorophenyl)-1-methylurea] | 0.2 µM
CCN(C(=O)Nc1ccc(F)c(F)c1)C(C)c1c[nH]c(=O)c2c(F)c(F)ccc12 (single isomer, unassigned) [Compound 462, 1-(1-(7,8-Difluoro-1-oxo-1,2-dihydroisoquinolin-4-yl)ethyl)-3-(3,4-difluorophenyl)-1-ethylurea] | 0.92 µM
CCN(C(=O)Nc1ccc(F)c(F)c1)C(C)c1c[nH]c(=O)c2c(F)c(F)ccc12 (single isomer, unassigned) [Compound 463, 1-(1-(7,8-Difluoro-1-oxo-1,2-dihydroisoquinolin-4-yl)ethyl)-3-(3,4-difluorophenyl)-1-ethylurea] | 0.008 µM
CCN(C(=O)Nc1ccc(F)cc1)C(C)c1c[nH]c(=O)c2c(F)c(F)ccc12 (single isomer, unassigned) [Compound 464, 1-(1-(7,8-Difluoro-1-oxo-1,2-dihydroisoquinolin-4-yl)ethyl)-1-ethyl-3-(4-fluorophenyl)urea] | 2.9 µM
CCN(C(=O)Nc1ccc(F)cc1)C(C)c1c[nH]c(=O)c2c(F)c(F)ccc12 (single isomer, unassigned) [Compound 465, 1-(1-(7,8-Difluoro-1-oxo-1,2-dihydroisoquinolin-4-yl)ethyl)-1-ethyl-3-(4-fluorophenyl)urea] | 0.019 µM
CCN(C(=O)Nc1ccc(F)c(Cl)c1)C(C)c1c[nH]c(=O)c2c(F)c(F)ccc12 (single isomer, unassigned) [Compound 468, 3-(3-Chloro-4-fluorophenyl)-1-(1-(7,8-difluoro-1-oxo-1,2-dihydroisoquinolin-4-yl)ethyl)-1-ethylurea] | 1.1 µM
CCN(C(=O)Nc1ccc(F)c(Cl)c1)C(C)c1c[nH]c(=O)c2c(F)c(F)ccc12 (single isomer, unassigned) [Compound 469, 3-(3-Chloro-4-fluorophenyl)-1-(1-(7,8-difluoro-1-oxo-1,2-dihydroisoquinolin-4-yl)ethyl)-1-ethylurea] | 0.005 µM
CC(c1c[nH]c(=O)c2c(F)c(F)ccc12)N(C)C(=O)Nc1ccc(F)c(C#N)c1 (single isomer, unassigned) [Compound 470, 3-(3-Cyano-4-fluorophenyl)-1-(1-(7,8-difluoro-1-oxo-1,2-dihydroisoquinolin-4-yl)ethyl)-1-methylurea] | 2 µM
CC(c1c[nH]c(=O)c2c(F)c(F)ccc12)N(C)C(=O)Nc1ccc(F)c(C#N)c1 (single isomer, unassigned) [Compound 471, 3-(3-Cyano-4-fluorophenyl)-1-(1-(7,8-difluoro-1-oxo-1,2-dihydroisoquinolin-4-yl)ethyl)-1-methylurea] | 0.02 µM

Same assay, conditions: Hepatitis B virus, HepDE19, HepDE19 assay, inhibition of formation of relaxed circular DNA (rcDNA), bDNA quantitation; read-out: DE-19bDNA EC50

Compound | EC50
CC(c1c[nH]c(=O)c2c(F)c(F)ccc12)N(C)C(=O)Nc1ccnc(Cl)c1 (single isomer, unassigned) [Compound 454, 3-(2-Chloropyridin-4-yl)-1-(1-(7,8-difluoro-1-oxo-1,2-dihydroisoquinolin-4-yl)ethyl)-1-methylurea] | 0.17 µM

Same assay, conditions: Hepatitis B virus, HepDE19, read-out: DE-19bDNA EC50 (μM), HepDE19 assay, inhibition of formation of relaxed circular DNA (rcDNA), bDNA quantitation

Compound | EC50
CC(c1c[nH]c(=O)c2c(F)c(F)ccc12)N(C)C(=O)Nc1ccncc1 (single isomer, unassigned) [Compound 449, 1-(1-(7,8-Difluoro-1-oxo-1,2-dihydroisoquinolin-4-yl)ethyl)-1-methyl-3-(pyridin-4-yl)urea] | 15 µM
CC(c1c[nH]c(=O)c2c(F)c(F)ccc12)N(C)C(=O)Nc1cccnc1 (single isomer, unassigned) [Compound 450, 1-(1-(7,8-Difluoro-1-oxo-1,2-dihydroisoquinolin-4-yl)ethyl)-1-methyl-3-(pyridin-3-yl)urea] | 5.4 µM
CC(c1c[nH]c(=O)c2c(F)c(F)ccc12)N(C)C(=O)NCc1ccccc1 (single isomer, unassigned) [Compound 453, 3-Benzyl-1-(1-(7,8-difluoro-1-oxo-1,2-dihydroisoquinolin-4-yl)ethyl)-1-methylurea] | 0.29 µM
CC(c1c[nH]c(=O)c2c(F)c(F)ccc12)N(C)C(=O)Nc1ccccc1F (single isomer, unassigned) [Compound 457, 1-(1-(7,8-Difluoro-1-oxo-1,2-dihydroisoquinolin-4-yl)ethyl)-3-(2-fluorophenyl)-1-methylurea] | 0.74 µM

Same assay, conditions: read-out: DE-19bDNA EC50; HepDE19 assay, inhibition of formation of relaxed circular DNA (rcDNA), bDNA quantitation

Compound | EC50
CC(c1c[nH]c(=O)c2c(F)c(F)ccc12)N(C)C(=O)Nc1ccc(Cl)cc1 (single isomer, unassigned) [Compound 444, 3-(4-Chlorophenyl)-1-(1-(7,8-difluoro-1-oxo-1,2-dihydroisoquinolin-4-yl)ethyl)-1-methylurea] | 17 µM
CC(c1c[nH]c(=O)c2c(F)c(F)ccc12)N(C)C(=O)Nc1ccc(Cl)cc1 (single isomer, unassigned) [Compound 445, 3-(4-Chlorophenyl)-1-(1-(7,8-difluoro-1-oxo-1,2-dihydroisoquinolin-4-yl)ethyl)-1-methylurea] | 0.22 µM
CC(c1c[nH]c(=O)c2c(F)c(F)ccc12)N(C)C(=O)Nc1cc(Cl)cc(Cl)c1 (single isomer, unassigned) [Compound 447, 3-(3,5-Dichlorophenyl)-1-(1-(7,8-difluoro-1-oxo-1,2-dihydroisoquinolin-4-yl)ethyl)-1-methylurea] | 6.5 µM
CC(c1c[nH]c(=O)c2c(F)c(F)ccc12)N(C)C(=O)Nc1cc(Cl)cc(Cl)c1 (single isomer, unassigned) [Compound 448, 3-(3,5-Dichlorophenyl)-1-(1-(7,8-difluoro-1-oxo-1,2-dihydroisoquinolin-4-yl)ethyl)-1-methylurea] | 0.07 µM
CC(c1c[nH]c(=O)c2c(F)c(F)ccc12)N(C)C(=O)Nc1cccc(F)c1 (single isomer, unassigned) [Compound 455, 1-(1-(7,8-Difluoro-1-oxo-1,2-dihydroisoquinolin-4-yl)ethyl)-3-(3-fluorophenyl)-1-methylurea] | 6.3 µM
CC(c1c[nH]c(=O)c2c(F)c(F)ccc12)N(C)C(=O)Nc1cccc(F)c1 (single isomer, unassigned) [Compound 456, 1-(1-(7,8-Difluoro-1-oxo-1,2-dihydroisoquinolin-4-yl)ethyl)-3-(3-fluorophenyl)-1-methylurea] | 0.051 µM
CC(c1c[nH]c(=O)c2c(F)c(F)ccc12)N(C)C(=O)Nc1cccc(Cl)c1 (single isomer, unassigned) [Compound 460, 3-(3-Chlorophenyl)-1-(1-(7,8-difluoro-1-oxo-1,2-dihydroisoquinolin-4-yl)ethyl)-1-methylurea] | 0.61 µM
CC(c1c[nH]c(=O)c2c(F)c(F)ccc12)N(C)C(=O)Nc1cccc(Cl)c1 (single isomer, unassigned) [Compound 461, 3-(3-Chlorophenyl)-1-(1-(7,8-difluoro-1-oxo-1,2-dihydroisoquinolin-4-yl)ethyl)-1-methylurea] | 0.011 µM
CCN(C(=O)Nc1ccccc1)C(C)c1c[nH]c(=O)c2c(F)c(F)ccc12 (single isomer, unassigned) [Compound 466, 1-(1-(7,8-Difluoro-1-oxo-1,2-dihydroisoquinolin-4-yl)ethyl)-1-ethyl-3-phenylurea] | 8.5 µM
CCN(C(=O)Nc1ccccc1)C(C)c1c[nH]c(=O)c2c(F)c(F)ccc12 (single isomer, unassigned) [Compound 467, 1-(1-(7,8-Difluoro-1-oxo-1,2-dihydroisoquinolin-4-yl)ethyl)-1-ethyl-3-phenylurea] | 0.066 µM
